# Assay results: ChEMBL document CHEMBL4339186, “Repurposing nitrocatechols: 5-Nitro-α-cyanocarboxamide derivatives of caffeic acid and caffeic acid phenethyl ester effectively inhibit aggregation of tau-derived hexapeptide AcPHF6” (Eur J Med Chem, 2019)
# Activity calls are given as the source filed them. The rule behind the calls is not given here.
# How the values were obtained:
# [1] = Inhibition of synthetic AcPHF6 peptide aggregation in pH 7.4 phosphate buffer assessed as reduction in fluorescence intensity at 50 uM and measured every minute over 2 hrs with 5 secs shaking prior to each reading by ThT fluorescence assay
# [2] = Metal chelating activity assessed as Fe2+-compound complex formation at 40 uM after 30 mins by UV-Visible spectrophotometric method
# [3] = Metal chelating activity assessed as Cu2+-compound complex formation at 40 uM after 30 mins by UV-Visible spectrophotometric method
# [4] = Metal chelating activity assessed as Cu2+-compound complex formation at 40 uM incubated with 0-100 uM copper(II) sulfate after 30 mins by UV-Visible spectrophotometric method
SMILES,inhibition [1],Activity [2],Activity [3],Activity [4]
O=C(O)C(=Cc1cc(O)c(O)c([N+](=O)[O-])c1)C(=O)O,inactive,,,
O=C(O)/C=C/c1cc(O)c(O)c([N+](=O)[O-])c1,45%,,,
CCOC(=O)C(=Cc1ccc(O)c(O)c1)C(=O)OCC,inactive,,,
N#C/C(=C\c1cc(O)c(O)c([N+](=O)[O-])c1)C(=O)NCc1ccccc1,90.5%,inactive,Active,
O=S(=O)(O)c1cc(S(=O)(=O)O)c2c(/N=N/c3ccccc3)c(O)ccc2c1,54%,,,
O=C(/C=C/c1cc(O)c(O)c([N+](=O)[O-])c1)OCCc1ccccc1,55.2%,inactive,Active,
O=C(O)/C=C/c1cc(O)c(O)c(Br)c1,18%,,,
CCOC(=O)/C=C/c1cc(O)c(O)c([N+](=O)[O-])c1,44%,,,
O=C(O)c1ccc(O)c(O)c1,inactive,,,
O=C(/C=C/c1ccc(O)c(O)c1)OCc1ccccc1,13%,,,
N#C/C(=C\c1cc(O)c(O)c([N+](=O)[O-])c1)C(=O)NCCc1ccccc1,89.2%,inactive,Active,Active
O=C(/C=C/c1ccc(O)c(O)c1)OCCc1ccccc1,17%,,,
O=C(O)/C=C/c1cc(O)c(O)c(O)c1,inactive,,,
N#C/C(=C\c1cc(O)c(O)c([N+](=O)[O-])c1)C(=O)OCCc1ccccc1,74.4%,inactive,Active,
CCOC(=O)C(=Cc1ccc(O)cc1)C(=O)OCC,inactive,,,
CCN(CC)C(=O)/C(C#N)=C/c1cc(O)c(O)c([N+](=O)[O-])c1,60.3%,,,
O=C(O)c1cc(O)c(O)c(O)c1,inactive,,,
CCOC(=O)/C=C/c1ccc(O)c(O)c1,inactive,,,
CCOC(=O)C(=Cc1cc(O)c(O)c([N+](=O)[O-])c1)C(=O)OCC,41%,,,
Cc1ccc(C(=O)c2cc(O)c(O)c([N+](=O)[O-])c2)cc1,64.6%,,,
CCOC(=O)C(=Cc1cc(O)c(O)c(O)c1)C(=O)OCC,inactive,,,
O=C(O)/C=C/c1ccc(O)c(O)c1,inactive,,,
O=C(/C=C/c1cc(O)c(O)c([N+](=O)[O-])c1)OCc1ccccc1,44.5%,inactive,Active,
N#C/C(=C\c1cc(O)c(O)c([N+](=O)[O-])c1)C(=O)OCc1ccccc1,71.2%,inactive,Active,
O=C(/C=C/c1ccc(O)c(O)c1)NCCc1ccccc1,inactive,,,
O=C(O)/C=C/c1ccc(O)cc1,inactive,,,
CCOC(=O)/C=C/c1cc(O)c(O)c(O)c1,21%,,,
CCOC(=O)/C=C/c1ccc(O)cc1,inactive,,,
